Assay results as given in patent publication US8273774B2, “Phenoxypyridinylamide compounds” (AstraZeneca AB, priority 2008, dated 2012).

Biological target: recombinant Human Phosphodiesterase B2 (PDE4B2) (Homo sapiens, UniProt Q07343)
Experiment: Human Phosphodiesterase B2 Radiometric Assay
Assay type: biochemical
Settings: 0.1 μg/mL recombinant PDE4B2; preincubated at 30 C for 30 min; [3H]cyclic AMP 8 nM, stopped after 20 min; yttrium silicate SPA beads; read-out: PDE4B2 pIC50 (converted)
Outline: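 Compounds preincubated 30 min at 30 C with 0.1 μg/mL recombinant PDE4B2 in 50 mM HEPES pH 7.5, 8.3 mM MgCl2, 1.7 mM EGTA, 0.01% Brij 35.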

recombinant Human Phosphodiesterase B2 (PDE4B2), sequence (Q07343 1-564 isoform Q07343-2): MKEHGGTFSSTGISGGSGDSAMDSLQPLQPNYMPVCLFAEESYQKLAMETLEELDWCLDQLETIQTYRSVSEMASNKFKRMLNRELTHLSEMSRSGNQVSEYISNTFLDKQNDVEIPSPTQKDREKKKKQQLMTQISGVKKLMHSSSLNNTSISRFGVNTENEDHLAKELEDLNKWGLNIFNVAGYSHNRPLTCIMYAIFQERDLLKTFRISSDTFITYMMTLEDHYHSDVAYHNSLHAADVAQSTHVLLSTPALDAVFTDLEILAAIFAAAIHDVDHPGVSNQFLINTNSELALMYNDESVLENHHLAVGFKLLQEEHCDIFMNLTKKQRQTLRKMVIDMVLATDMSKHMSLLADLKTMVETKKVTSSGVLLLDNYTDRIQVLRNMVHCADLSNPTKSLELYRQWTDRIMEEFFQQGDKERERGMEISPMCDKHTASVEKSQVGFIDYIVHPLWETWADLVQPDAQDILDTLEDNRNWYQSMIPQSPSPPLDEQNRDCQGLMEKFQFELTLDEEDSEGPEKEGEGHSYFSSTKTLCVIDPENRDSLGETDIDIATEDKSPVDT

Row | IC50 [nM] | SMILES
1 | 0.02 | C[C@@H]1CN(Cc2ccc(-c3cccc(Oc4ncc(F)cc4C(=O)N[C@H]4CC[C@@H](NC(=O)c5cccc6[nH]cnc56)CC4)c3)c(CN3CCOC[C@@H]3C)c2)C[C@H](C)N1 [Example 195, N-((1s,4s)-4-(2-(4′-(((3S,5R)-3,5-dimethylpiperazin-1-yl)methyl)-2′-(((S)-3-methylmorpholino)methyl)biphenyl-3-yloxy)-5-fluoronicotmamido)cyclohexyl)-1H-benzo[d]imidazole-4-carboxamide]
2 | 0.0251 | Cc1cc(C)n2ncc(C(=O)N[C@H]3CC[C@@H](NC(=O)c4cc(F)cnc4Oc4cccc(-c5ccc(CN6C[C@@H](C)N[C@@H](C)C6)cc5CN5CCOC[C@@H]5C)c4)CC3)c2n1 [Example 196, N-((1s,4s)-4-(2-(4′-(((3S,5R)-3,5-dimethylpiperazin-1-yl)methyl)-2′-(((S)-3-methylmorpholino)methyl)biphenyl-3-yloxy)-5-fluoronicotinamido)cyclohexyl)-5,7-dimethylpyrazolo[1,5-a]pyrimidine-3-carboxamide]
3 | 0.02 | O=C(N[C@H]1CC[C@@H](NC(=O)c2cnn3cccnc23)CC1)c1cc(F)cnc1Oc1cccc(-c2ccc(CN3CCSCC3)cc2CN2CCOCC2)c1 [Example 197, N-((1s,4s)-4-(5-fluoro-2-(2′-(morpholinomethyl)-4′-(thiomorpholinomethyl)biphenyl-3-yloxy)nicotinamido)cyclohexyl)pyrazolo[1,5-a]pyrimidine-3-carboxamide]
4 | 0.0251 | Cc1csc(C(=O)N[C@H]2CC[C@@H](NC(=O)c3cc(F)cnc3Oc3cccc(-c4ccc(CN5CCN(CC(=O)NC(C)C)CC5)cc4CN4CCOCC4)c3)CC2)n1 [Example 198, N-((1s,4s)-4-(5-fluoro-2-(4′-((4-(2-(isopropylamino)-2-oxoethyl)piperazin-1-yl)methyl)-2′-(morpholinomethyl)biphenyl-3-yloxy)nicotinamido)cyclohexyl)-4-methylthiazole-2-carboxamide]
5 | 0.02 | Cn1ccc(C(=O)N[C@H]2CC[C@@H](NC(=O)c3cc(F)cnc3Oc3cccc(-c4ccc(CN5CCSCC5)cc4CN4CCOCC4)c3)CC2)n1 [Example 199, 5-fluoro-N-((1s,4s)-4-(1-methyl-1H-pyrazole-3-carboxamido)cyclo-hexyl)-2-(2′-(morpholinomethyl)-4′-(thiomorpholinomethyl)biphenyl-3-yloxy)nicotinamide]
6 | 0.0251 | CC(C)NC(=O)CN1CCN(Cc2ccc(-c3cccc(Oc4ncc(F)cc4C(=O)N[C@H]4CC[C@@H](NC(=O)c5cc6n(n5)CCCC6)CC4)c3)c(CN3CCOCC3)c2)CC1 [Example 200, N-((1s,4s)-4-(5-fluoro-2-(4′-((4-(2-(isopropylamino)-2-oxoethyl)piperazin-1-yl)methyl)-2′-(morpholinomethyl)biphenyl-3-yloxy)nicotinamido)cyclohexyl)-4,5,6,7-tetrahydropyrazolo[1,5-a]pyridine-2-carboxamide]
7 | 0.0158 | CC(C)NC(=O)CN1CCN(Cc2ccc(-c3cccc(Oc4ncc(F)cc4C(=O)N[C@H]4CC[C@@H](NC(=O)c5cccc6[nH]cnc56)CC4)c3)c(CN3CCOCC3)c2)CC1 [Example 201, N-((1s,4s)-4-(5-fluoro-2-(4′-((4-(2-(isopropylamino)-2-oxoethyl)piperazin-1-yl)methyl)-2′-(morpholinomethyl)biphenyl-3-yloxy)nicotinamido)cyclohexyl)-1H-benzo[d]imidazole-4-carboxamide]
8 | 0.0126 | C[C@@H]1CN(Cc2ccc(-c3cccc(Oc4ncc(F)cc4C(=O)N[C@H]4CC[C@@H](NC(=O)c5cccc6[nH]cnc56)CC4)c3)c(CN3CCSCC3)c2)C[C@H](C)N1 [Example 202, N-((1s,4s)-4-(2-(4′-(((3S,5R)-3,5-dimethylpiperazin-1-yl)methyl)-2′-(thiomorpholinomethyl)biphenyl-3-yloxy)-5-fluoronicotinamido)cyclohexyl)-1H-benzo[d]imidazole-4-carboxamide]
